Measurements from ChEMBL document CHEMBL5241098, “Progress in the development of small molecular inhibitors of the Bruton's tyrosine kinase (BTK) as a promising cancer therapy” (Bioorg Med Chem, 2021).
Values belong to the molecule of their own block, whether it stands above or below them.

Legend:
[1] = molecular target: T1, Tyrosine-protein kinase BTK (Homo sapiens, UniProt Q06187); assay: Inhibition of BTK (unknown origin) in the presence of ATP
[2] = tested on: Raji; assay: Antiproliferative activity against human Raji cells assessed as reduction in cell viability incubated for 72 hrs by CCK-8 assay
[3] = tested on: Ramos; assay: Antiproliferative activity against human Ramos cells assessed as reduction in cell viability incubated for 72 hrs by CCK-8 assay
[4] = tested on: NAMALVA; assay: Antiproliferative activity against human NAMALVA cells assessed as reduction in cell viability incubated for 72 hrs by CCK-8 assay
[5] = tested on: JeKo-1; assay: Antiproliferative activity against BTK knockout human JeKo-1 cells assessed as reduction in cell viability incubated for 72 hrs by CellTiter Glo luminescence assay; conditions: JeKo-1, 72 h
[6] = tested on: Z-138; assay: Antiproliferative activity against human Z138 cells assessed as reduction in cell viability incubated for 72 hrs by CellTiter Glo luminescence assay; conditions: Z-138, 72 h
[7] = tested on: Maver1; assay: Antiproliferative activity against human MAVER-1 cells assessed as reduction in cell viability incubated for 72 hrs by CellTiter Glo luminescence assay; conditions: Maver1, 72 h
[8] = molecular target: T2, Protein cereblon/Tyrosine-protein kinase BTK (Homo sapiens, UniProt Q06187+Q96SW2); assay: PROTAC activity at CRBN/BTK in human MINO cells assessed as decrease in BTK level incubated for 24 hrs by Western blot analysis; format: cell-based
Target sequence in this assay (Q06187 whole entry): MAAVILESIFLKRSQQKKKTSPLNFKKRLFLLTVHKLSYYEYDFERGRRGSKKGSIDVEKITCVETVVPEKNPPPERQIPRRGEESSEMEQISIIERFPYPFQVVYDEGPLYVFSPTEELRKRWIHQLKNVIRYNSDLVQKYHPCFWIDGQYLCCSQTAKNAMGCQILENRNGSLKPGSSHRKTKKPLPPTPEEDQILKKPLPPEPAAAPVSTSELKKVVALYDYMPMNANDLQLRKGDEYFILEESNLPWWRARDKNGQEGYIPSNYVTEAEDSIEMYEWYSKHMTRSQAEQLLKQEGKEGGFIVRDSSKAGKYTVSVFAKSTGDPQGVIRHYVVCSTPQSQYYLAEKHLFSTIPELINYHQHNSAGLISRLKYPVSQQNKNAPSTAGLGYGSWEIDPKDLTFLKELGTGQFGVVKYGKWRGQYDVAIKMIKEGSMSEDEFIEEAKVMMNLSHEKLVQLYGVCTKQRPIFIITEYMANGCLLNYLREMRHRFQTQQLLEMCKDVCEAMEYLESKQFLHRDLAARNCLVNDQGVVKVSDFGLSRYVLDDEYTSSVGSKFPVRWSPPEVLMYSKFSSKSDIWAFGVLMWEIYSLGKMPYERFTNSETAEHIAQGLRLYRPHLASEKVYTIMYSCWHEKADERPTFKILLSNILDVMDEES
Target sequence in this assay (Q96SW2 whole entry): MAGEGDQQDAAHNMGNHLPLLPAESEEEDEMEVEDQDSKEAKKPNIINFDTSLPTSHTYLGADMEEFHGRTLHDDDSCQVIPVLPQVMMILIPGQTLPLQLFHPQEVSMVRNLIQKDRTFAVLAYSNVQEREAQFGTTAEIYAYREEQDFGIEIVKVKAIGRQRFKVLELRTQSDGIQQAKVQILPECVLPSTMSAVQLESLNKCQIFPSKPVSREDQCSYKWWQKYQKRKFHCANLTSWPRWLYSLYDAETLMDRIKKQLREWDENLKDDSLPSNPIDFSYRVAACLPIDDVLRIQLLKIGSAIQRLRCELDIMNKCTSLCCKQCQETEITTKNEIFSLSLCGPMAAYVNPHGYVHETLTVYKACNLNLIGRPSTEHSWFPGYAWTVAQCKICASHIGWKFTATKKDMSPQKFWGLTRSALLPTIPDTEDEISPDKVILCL

[9] = molecular target: T2, Protein cereblon/Tyrosine-protein kinase BTK; assay: PROTAC activity at CRBN/BTK in human MINO cells assessed as decrease in BTK level by measuring maximal efficacy incubated for 24 hrs by Western blot analysis relative to control; format: cell-based
Target sequence in this assay (Q06187 2-659 limits assumed): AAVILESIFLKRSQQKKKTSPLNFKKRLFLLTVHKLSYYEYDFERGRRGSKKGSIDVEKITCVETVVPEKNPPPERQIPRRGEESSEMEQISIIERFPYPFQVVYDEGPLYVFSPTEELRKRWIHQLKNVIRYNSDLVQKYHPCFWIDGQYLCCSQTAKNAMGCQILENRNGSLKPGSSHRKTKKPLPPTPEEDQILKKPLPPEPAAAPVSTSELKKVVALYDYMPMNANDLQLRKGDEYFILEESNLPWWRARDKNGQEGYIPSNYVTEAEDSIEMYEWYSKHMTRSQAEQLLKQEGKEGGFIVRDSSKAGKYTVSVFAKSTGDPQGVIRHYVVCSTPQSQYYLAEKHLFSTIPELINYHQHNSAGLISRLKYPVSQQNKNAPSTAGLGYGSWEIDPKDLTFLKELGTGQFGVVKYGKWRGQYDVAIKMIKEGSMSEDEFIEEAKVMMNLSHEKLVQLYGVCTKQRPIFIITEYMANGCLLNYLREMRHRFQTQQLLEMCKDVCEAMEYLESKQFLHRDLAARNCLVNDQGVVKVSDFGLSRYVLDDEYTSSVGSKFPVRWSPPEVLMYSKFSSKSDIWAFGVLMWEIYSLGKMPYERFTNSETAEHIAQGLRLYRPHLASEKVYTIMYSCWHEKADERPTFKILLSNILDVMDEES
Target sequence in this assay (Q96SW2 whole entry partner): as the sequence (Q96SW2 whole entry) above

[10] = molecular target: E3 ubiquitin-protein ligase XIAP/Tyrosine-protein kinase BTK (Homo sapiens, UniProt P98170+Q06187); assay: PROTAC activity at IAP/BTK in human THP-1 cells assessed as reduction in BTK level incubated for 16 hrs by immunoblot analysis; format: cell-based
[11] = molecular target: T3, Protein cereblon/Tyrosine-protein kinase BTK (Homo sapiens, UniProt Q06187+Q96SW2, C481S); assay: PROTAC activity at CRBN/BTK C481S mutant in human Ramos cells assessed as decrease in BTK C481S level incubated for 48 hrs by immunoblot analysis; format: cell-based
[12] = molecular target: T4, Receptor-type tyrosine-protein kinase FLT3 (Homo sapiens, UniProt P36888); assay: Inhibition of FLT3 (unknown origin)
T4 sequence (P36888 whole entry): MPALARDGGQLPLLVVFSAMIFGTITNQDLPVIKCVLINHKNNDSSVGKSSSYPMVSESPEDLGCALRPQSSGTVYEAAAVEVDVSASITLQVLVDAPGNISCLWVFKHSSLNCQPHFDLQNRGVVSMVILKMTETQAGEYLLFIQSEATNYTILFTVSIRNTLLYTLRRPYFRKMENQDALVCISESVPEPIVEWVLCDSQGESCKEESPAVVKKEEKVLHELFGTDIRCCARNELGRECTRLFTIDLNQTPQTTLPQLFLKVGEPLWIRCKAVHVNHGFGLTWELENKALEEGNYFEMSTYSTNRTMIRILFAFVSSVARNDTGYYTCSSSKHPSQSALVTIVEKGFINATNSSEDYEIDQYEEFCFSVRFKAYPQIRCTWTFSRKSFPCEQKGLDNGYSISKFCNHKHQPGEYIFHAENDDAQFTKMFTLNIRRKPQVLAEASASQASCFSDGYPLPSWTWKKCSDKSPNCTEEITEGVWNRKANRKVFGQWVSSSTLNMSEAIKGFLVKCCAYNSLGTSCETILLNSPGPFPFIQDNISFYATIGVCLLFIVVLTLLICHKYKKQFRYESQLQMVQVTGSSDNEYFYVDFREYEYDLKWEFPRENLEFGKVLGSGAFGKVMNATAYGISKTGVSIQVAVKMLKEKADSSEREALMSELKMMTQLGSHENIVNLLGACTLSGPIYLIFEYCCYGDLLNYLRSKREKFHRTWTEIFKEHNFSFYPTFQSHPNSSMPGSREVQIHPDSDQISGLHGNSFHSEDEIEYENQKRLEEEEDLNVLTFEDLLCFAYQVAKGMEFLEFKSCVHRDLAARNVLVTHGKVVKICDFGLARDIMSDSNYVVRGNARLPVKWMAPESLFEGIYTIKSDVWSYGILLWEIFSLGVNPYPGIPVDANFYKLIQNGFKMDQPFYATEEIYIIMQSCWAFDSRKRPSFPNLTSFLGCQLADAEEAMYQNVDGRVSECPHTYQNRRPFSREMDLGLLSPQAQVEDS

[13] = molecular target: T3, Protein cereblon/Tyrosine-protein kinase BTK; assay: PROTAC activity at CRBN/BTK C481S mutant in human HBL1 cells assessed as decrease in BTK C481S level incubated for 36 hrs by Western blot analysis; format: cell-based
[14] = molecular target: T1, Tyrosine-protein kinase BTK; assay: Inhibition of BTK (unknown origin) incubated for 40 mins in the presence of ATP by scintillation based radiometric protein kinase assay
[15] = Antiproliferative activity against human MINO cells assessed as reduction in cell viability incubated for 72 hrs by CellTiter Glo luminescence assay

T1 sequence (Q06187 whole entry): as the sequence (Q06187 whole entry) above
T3 sequence (Q06187 2-659 C481S limits assumed, stated change not applied): as the sequence (Q06187 2-659 limits assumed) above, with C480S counted along it
T3 sequence (Q96SW2 whole entry, stated change not applied): as the sequence (Q96SW2 whole entry) above
Chain of E3 ubiquitin-protein ligase XIAP/Tyrosine-protein kinase BTK (P98170 whole entry): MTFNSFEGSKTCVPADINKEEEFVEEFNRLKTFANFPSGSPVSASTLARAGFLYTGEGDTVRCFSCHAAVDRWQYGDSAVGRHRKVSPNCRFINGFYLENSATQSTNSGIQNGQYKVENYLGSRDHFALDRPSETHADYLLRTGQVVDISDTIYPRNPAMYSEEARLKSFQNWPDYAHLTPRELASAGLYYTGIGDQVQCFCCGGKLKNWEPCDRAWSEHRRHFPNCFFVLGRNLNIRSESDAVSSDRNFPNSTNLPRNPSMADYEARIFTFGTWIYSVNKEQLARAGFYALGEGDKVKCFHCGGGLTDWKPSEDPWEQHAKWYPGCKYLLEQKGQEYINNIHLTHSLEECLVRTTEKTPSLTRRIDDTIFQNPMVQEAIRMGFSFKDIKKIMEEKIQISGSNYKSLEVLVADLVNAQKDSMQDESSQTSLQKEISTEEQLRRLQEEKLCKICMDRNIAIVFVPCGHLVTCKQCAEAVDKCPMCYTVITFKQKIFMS
Chain of E3 ubiquitin-protein ligase XIAP/Tyrosine-protein kinase BTK (Q06187 whole entry): as the sequence (Q06187 whole entry) above

SMILES: CN1CCN(c2ccc(Nc3nc(Nc4cccc(F)c4)c4ncn(CC5CC5)c4n3)cc2F)CC1
IC50 [1]: 1.81 µM

SMILES: Nc1cccc(Cn2nc(-c3ccc(Oc4ccccc4)cc3)c3c(N)ncnc32)c1
IC50 [5]: 11.2 µM | IC50 [6]: 14.2 µM | IC50 [7]: 16.8 µM

SMILES: Nc1ncnc2c1c(-c1ccc(Oc3ccccc3)cc1)nn2Cc1cccc(NC(=O)CCl)c1
IC50 [5]: 0.4 µM | IC50 [6]: 0.8 µM | IC50 [7]: 0.4 µM

SMILES: Nc1ncnc2c1c(-c1ccc(Oc3ccccc3)cc1)nn2C1CCCN(C(=O)CCCCCCCOCCOCCOCCOCCOc2cccc3c2C(=O)N(C2CCC(=O)NC2=O)C3=O)C1 (centres undefined)
EC50 [8]: 0.0022 µM | Emax [9]: 97%

SMILES: CN[C@H](C)C(=O)N[C@@H](C(=O)N1C[C@@H](NC(=O)COCCOCCOCCOCCN2CCN(CCCC(=O)N3CCCC(n4nc(-c5ccc(Oc6ccccc6)cc5)c5c(N)ncnc54)C3)CC2)C[C@H]1C(=O)N[C@@H]1CCCc2ccccc21)C1CCCCC1 (some centres undefined)
EC50 [10]: 0.2 µM

SMILES: Nc1ncnc2c1c(-c1ccc(Oc3ccccc3)cc1)nn2[C@@H]1CCCN(C(=O)c2cn(CCOCCOCCOCCNc3cccc4c3C(=O)N(C3CCC(=O)NC3=O)C4=O)nn2)C1 (some centres undefined)
EC50 [11]: 0.03 µM

SMILES: Nc1ncnc2c1c(-c1ccc(Oc3ccccc3)cc1)nn2C1CCCN(C(=O)c2cn(CCOCCOCCOCCCc3cccc4c3CN(C3CCC(=O)NC3=O)C4=O)nn2)C1 (centres undefined)
EC50 [13]: 0.029 µM

SMILES: CN1CCN(c2ccc(Nc3nc(Nc4cccc(F)c4)c4ncn(CC5CC5)c4n3)cc2)CC1
IC50 [1]: 0.66 µM

Continued, in another order:

IC50 [2]: 7.98 µM | IC50 [3]: 10.8 µM
SMILES: C=CC(=O)Nc1cccc(Nc2nc(Nc3ccc(Cn4cc(C)nc4CC)cc3)ncc2Cl)c1
IC50 [4]: 4.9 µM

IC50 [12]: 0.08 µM
SMILES: Cc1cnc(-c2ccc(-c3ccc(NC(=O)Nc4cccc(C(F)(F)F)c4)cc3F)c3c2C(=O)NC3)[nH]1

EC50 [8]: 0.01 µM | Emax [9]: 90%
SMILES: Nc1ncnc2c1c(-c1ccc(Oc3ccccc3)cc1)nn2C1CCCN(C(=O)/C=C/CCCCCOCCOCCOCCOCCOc2cccc3c2C(=O)N(C2CCC(=O)NC2=O)C3=O)C1 (centres undefined)

IC50 [14]: 0.05 µM
SMILES: C=CC(=O)Nc1cccc(Cn2nc(-c3ccc(Oc4ccccc4)cc3)c3c(N)ncnc32)c1
IC50 [15]: 1.3 µM | IC50 [5]: 1.3 µM | IC50 [6]: 2.8 µM | IC50 [7]: 2.6 µM
